Assay results taken from US7132504B2, “Hepatitis C virus inhibitors” (Bristol-Myers Squibb Company, priority 2003, dated 2006).

Columns and labels:
[1] = molecular target: T1, HCV NS3/4A protease complex (UniProt P27958, C1454S/C1711G, species not given); test: Recombinant HCV NS3/4A protease complex FRET peptide assay (strain not stated); type: biochemical; conditions: NS3/4A protease enzyme assay, read-out: Activity Range IC50
T1 construct: fused on or other part: Three-lysine solubilising tail at the C-terminus of NS4A
Description: The purpose of this in vitro assay was to measure the inhibition of HCV NS3 protease complexes, derived from the BMS strain, H77 strain or J416S strain, as described below, by compounds of the present invention. This assay provides an indication of how effective compounds of the present invention would be in inhibiting HCV proteolytic activity.
Serum from an HCV-infected patient was obtained from Dr. T. Wright, San Francisco Hospital. An engineered full-length cDNA (compliment deoxyribonucleic acid) template of the HCV genome (BMS strain) was constructed from DNA fragments obtained by reverse transcription-PCR (RT-PCR) of serum RNA (ribonucleic acid) and using primers selected on the basis of homology between other genotype 1a strains. From the determination of the entire genome sequence, a genotype 1a was assigned to the HCV isolate according to the classification of Simmonds et al. (See P Simmonds, K A Rose, S Graham, S W Chan, F McOmish, B C Dow, E A Follett, P L Yap and H Marsden, J. Clin. Microbiol., 31(6), 1493–1503 (1993)). […] The infectious clones, H77 (1a genotype) and J4L6S (1b genotype) were obtained from R. Purcell (NIH) and the sequences are published in Genbank (AAB67036, see Yanagi, M., Purcell, R. H., Emerson, S. U. and Bukh, J. Proc. Natl. Acad. Sci. U.S.A. 94(16), 8738–8743 (1997); AF054247, see Yanagi, M., St Claire, M., Shapiro, M., Emerson, S. U., Purcell, R. H. and Bukh, J, Virology 244 (1), 161–172. (1998)).
The H77 and J4L6S strains were used for production of recombinant NS3/4A protease complexes. DNA encoding the recombinant HCV NS3/4A protease complex (amino acids 1027 to 1711) for these strains were manipulated as described by P. Gallinari et al. (see Gallinari P, Paolini C, Brennan D, Nardi C, Steinkuhler C, De Francesco R. Biochemistry. 38(17):5620–32, (1999)). Briefly, a three-lysine solubilizing tail was added at the 3′-end of the NS4A coding region. The cysteine in the P1 position of the NS4A–NS4B cleavage site (amino acid 1711) was changed to a glycine to avoid the proteolytic cleavage of the lysine tag. Furthermore, a cysteine to serine mutation was introduced by PCR at amino acid position 1454 to prevent the autolytic cleavage in the NS3 helicase domain. The variant DNA fragment was cloned in the pET21b bacterial expression vector (Novagen) and the NS3/4A complex was expressed in Escherichia. coli strain BL21 (DE3) (Invitrogen) following the protocol described by P. Gallinari et al. (see Gallinari P, Brennan D, Nardi C, Brunetti M, Tomei L, Steinkuhler C, De Francesco R., J Virol. 72(8):6758–69 (1998)) with modifications. Briefly, the NS3/4A protease complex expression was induced with 0.5 millimolar (mM) Isopropyl β-D-1-thiogalactopyranoside (IPTG) for 22 hours (h) at 20° C. A typical fermentation (1 Liter (L)) yielded approximately 10 grams (g) of wet cell paste. The cells were resuspended in lysis buffer (10 mL/g) consisting of 25 mM N-(2-Hydroxyethyl)Piperazine-N′-(2-Ethane Sulfonic acid) (HEPES), pH 7.5, 20% glycerol, 500 mM Sodium Chloride (NaCl), 0.5% Triton X-100, 1 microgram/milliliter (“μg/mL”) lysozyme, 5 mM Magnesium Chloride (MgCl2), 1 μg/ml Dnasel, 5 mM β-Mercaptoethanol (βME), Protease inhibitor—Ethylenediamine Tetraacetic acid (EDTA) free (Roche), homogenized and incubated for 20 minutes (min) at 4° C. The homogenate was sonicated and clarified by ultra-centrifugation at 235000 g for 1 h at 4° C. Imidazole was added to the supernatant to a final concentration of 15 mM and the pH adjusted to 8.0. The crude protein extract was loaded on a Nickel—Nitrilotriacetic acid (Ni-NTA) column pre-equilibrated with buffer B (25 mM HEPES, pH 8.0, 20% glycerol, 500 mM NaCl, 0.5% Triton X-100, 15 mM imidazole, 5 mM βME). The sample was loaded at a flow rate of 1 mL/min. The column was washed with 15 column volumes of buffer C (same as buffer B except with 0.2% Triton X-100). The protein was eluted with 5 column volumes of buffer D (same as buffer C except with 200 mM Imidazole). […]

[2] = system: HCV replicon in Huh7 cells; test: HCV replicon cell-based assay (FRET); parameters: species or system HCV strain 1b; conditions: Hepatitis C virus, Huh-7, 96 h, 4 days, read-out: Activity Range EC50
Description: An HCV replicon whole cell system was established as described by Lohmann V, Korner F, Koch J, Herian U, Theilmann L, Bartenschlager R., Science 285(5424):110–3 (1999). This system enabled us to evaluate the effects of our HCV Protease compounds on HCV RNA replication. Briefly, using the HCV strain 1b sequence described in the Lohmann paper (Assession number:AJ238799), an HCV cDNA was generated encoding the 5′ internal ribosome entry site (IRES), the neomycin resistance gene, the EMCV (encephalomyocarditis viurs)-IRES and the HCV nonstructural proteins, NS3–NS5B, and 3′ non-translated region (NTR). In vitro transcripts of the cDNA were transfected into the human hepatoma cell line, Huh7. […] Resulting cell lines were characterized for positive and negative strand RNA production and protein production over time.
Huh7 cells, constitutively expressing the HCV replicon, were grown in Dulbecco's Modified Eagle Media (DMEM) containing 10% Fetal calf serum (FCS) and 1 mg/ml G418 (Gibco-BRL). Cells were seeded the night before (1.5×10^4 cells/well) in 96-well tissue-culture sterile plates. Compound and no compound controls were prepared in DMEM containing 4% FCS, 1:100 Penicillin/Streptomysin, 1:100 L-glutamine and 5% DMSO in the dilution plate (0.5% DMSO final concentration in the assay). Compound/DMSO mixes were added to the cells and incubated for 4 days at 37° C. After 4 days, plates were rinsed thoroughly with Phosphate-Buffered Saline (PBS) (3 times 150 μl). The cells were lysed with 25 μl of a lysis assay reagent containing the FRET peptide (RET S1, as described for the in vitro enzyme assay). The lysis assay reagent was made from 5× cell Luciferase cell culture lysis reagent (Promega #E153A) diluted to 1× with distilled water, NaCl added to 150 mM final, the FRET peptide diluted to 10 μM final from a 2 mM stock in 100% DMSO. The plate was then placed into the Cytofluor 4000 instrument which had been set to 340 nm excitation/490 nm emission, automatic mode for 21 cycles and the plate read in a kinetic mode. EC50 determinations were carried out as described for the IC50 determinations. […]
The percentage inhibition was calculated using the formula below: […]
The values were graphed and analyzed using XLFit to obtain the EC50 value.

Structure (SMILES)	IC50 [1] [nM]	EC50 [2] [nM]
C=CC1CC1(NC(=O)[C@@H]1C[C@@H](Oc2cc(-c3ccccc3)nc3cc(OC)ccc23)CN1C(=O)[C@@H](NC(=O)OC)C(C)(C)C)C(=O)NS(=O)(=O)N1CCCC1 (mixture of isomers) [Compound 8]	< 150	150 to 1500
C=CC1C[C@]1(NC(=O)[C@@H]1C[C@@H](Oc2cc(-c3ccccc3)nc3cc(OC)ccc23)CN1C(=O)[C@@H](NC(=O)OC)C(C)(C)C)C(=O)NS(=O)(=O)N(C)CC (stereo partly drawn) [Compound 1]	< 150	< 150
C=CC1C[C@]1(NC(=O)[C@@H]1C[C@@H](Oc2cc(-c3ccccc3)nc3cc(OC)ccc23)CN1C(=O)[C@@H](NC(=O)OC)C(C)(C)C)C(=O)NS(=O)(=O)N(C)OC (stereo partly drawn) [Compound 2]	< 150	150 to 1500
C=CC1C[C@]1(NC(=O)[C@@H]1C[C@@H](Oc2cc(-c3ccccc3)nc3cc(OC)ccc23)CN1C(=O)[C@@H](NC(=O)OC)C(C)(C)C)C(=O)NS(=O)(=O)N(C)C (stereo partly drawn) [Compound 3]	< 150	< 150
C=CC1C[C@]1(NC(=O)[C@@H]1C[C@@H](Oc2cc(-c3ccccc3)nc3cc(OC)ccc23)CN1C(=O)[C@@H](NC(=O)OC)C(C)(C)C)C(=O)NS(=O)(=O)N1CCC1 (stereo partly drawn) [Compound 4]	< 150	150 to 1500
C=CC1C[C@]1(NC(=O)[C@@H]1C[C@@H](Oc2cc(-c3ccccc3)nc3cc(OC)ccc23)CN1C(=O)[C@@H](NC(=O)OC)C(C)(C)C)C(=O)NS(=O)(=O)N(C)c1ccccc1 (stereo partly drawn) [Compound 5]	< 150	< 150
C=CC1C[C@]1(NC(=O)[C@@H]1C[C@@H](Oc2cc(-c3ccccc3)nc3cc(OC)ccc23)CN1C(=O)[C@@H](NC(=O)OC)C(C)(C)C)C(=O)NS(=O)(=O)N1CCCC1 (stereo partly drawn) [Compound 6]	< 150	150 to 1500
C=CC1C[C@]1(NC(=O)[C@@H]1C[C@@H](Oc2cc(-c3ccccc3)nc3cc(OC)ccc23)CN1C(=O)[C@@H](NC(=O)OC)C(C)(C)C)C(=O)NS(=O)(=O)N(C)C(C)C (stereo partly drawn) [Compound 7]	< 150	150 to 1500
C=CC1C[C@]1(NC(=O)[C@@H]1C[C@@H](Oc2cc(-c3ccccc3)nc3cc(OC)ccc23)CN1C(=O)[C@@H](NC(=O)OC)C(C)(C)C)C(=O)NS(=O)(=O)N1CCCCC1 (stereo partly drawn) [Compound 10]	< 150	150 to 1500
C=CC1C[C@]1(NC(=O)[C@@H]1C[C@@H](Oc2cc(-c3ccccc3)nc3cc(OC)ccc23)CN1C(=O)[C@@H](NC(=O)OC)C(C)(C)C)C(=O)NS(=O)(=O)N1CCCCO1 (stereo partly drawn) [Compound 11]	150 to 1500	> 1500
C=CC1C[C@]1(NC(=O)[C@@H]1C[C@@H](Oc2cc(-c3ccccc3)nc3cc(OC)ccc23)CN1C(=O)[C@@H](NC(=O)OC)C(C)(C)C)C(=O)NS(=O)(=O)N1CCOCC1 (stereo partly drawn) [Compound 12]	150 to 1500	
C=CC1C[C@]1(NC(=O)[C@@H]1C[C@@H](Oc2cc(-c3ccccc3)nc3cc(OC)ccc23)CN1C(=O)[C@@H](NC(=O)OC)C(C)(C)C)C(=O)NS(=O)(=O)N1CCN(C)CC1 (stereo partly drawn) [Compound 13]	150 to 1500	> 1500
C=CC1C[C@]1(NC(=O)[C@@H]1C[C@@H](Oc2cc(-c3ccccc3)nc3cc(OC)ccc23)CN1C(=O)[C@@H](NC(=O)OC(C)(C)C)C(C)(C)C)C(=O)NS(=O)(=O)N(C)CC (stereo partly drawn) [Compound 14]	< 150	< 150
C=CC1C[C@]1(NC(=O)[C@@H]1C[C@@H](Oc2cc(-c3ccccc3)nc3cc(OC)ccc23)CN1C(=O)[C@@H](NC(=O)OC(C)(C)C)C(C)(C)C)C(=O)NS(=O)(=O)N(C)C (stereo partly drawn) [Compound 15]	< 150	< 150
C=CC1C[C@]1(NC(=O)[C@@H]1C[C@@H](Oc2cc(-c3ccccc3)nc3cc(OC)ccc23)CN1C(=O)[C@@H](NC(=O)OC(C)(C)C)C(C)(C)C)C(=O)NS(=O)(=O)N(C)c1ccccc1 (stereo partly drawn) [Compound 16]	< 150	< 150
C=CC1C[C@]1(NC(=O)[C@@H]1C[C@@H](Oc2nccc3cc(OC)ccc23)CN1C(=O)[C@@H](NC(=O)OC(C)(C)C)C(C)(C)C)C(=O)NS(=O)(=O)N(C)C (stereo partly drawn) [Compound 17]	< 150	150 to 1500
C=CC1C[C@]1(NC(=O)[C@@H]1C[C@@H](Oc2nccc3cc(OC)ccc23)CN1C(=O)[C@@H](NC(=O)OC(C)(C)C)C(C)(C)C)C(=O)NS(=O)(=O)N1CCCC1 (stereo partly drawn) [Compound 18]	< 150	< 150
C=CC1C[C@]1(NC(=O)[C@@H]1C[C@@H](Oc2nccc3cc(OC)ccc23)CN1C(=O)[C@@H](NC(=O)OC(C)(C)C)C(C)(C)C)C(=O)NS(=O)(=O)N(C)CC (stereo partly drawn) [Compound 19]	< 150	< 150
C=CC1C[C@]1(NC(=O)[C@@H]1C[C@@H](Oc2nccc3cc(OC)ccc23)CN1C(=O)[C@@H](NC(=O)OC(C)(C)C)C(C)(C)C)C(=O)NS(=O)(=O)N(C)c1ccccc1 (stereo partly drawn) [Compound 20]	< 150	< 150
C=CC1C[C@]1(NC(=O)[C@@H]1C[C@@H](Oc2nccc3cc(OC)ccc23)CN1C(=O)[C@@H](NC(=O)OC(C)(C)C)C(C)(C)C)C(=O)NS(=O)(=O)N(C)C(C)C (stereo partly drawn) [Compound 21]	150 to 1500	150 to 1500
C=CC1C[C@]1(NC(=O)[C@@H]1C[C@@H](Oc2nccc3ccccc23)CN1C(=O)[C@@H](NC(=O)OC(C)(C)C)C(C)(C)C)C(=O)NS(=O)(=O)N(C)C(C)C (stereo partly drawn) [Compound 22]	150 to 1500	
C=CC1C[C@]1(NC(=O)[C@@H]1C[C@@H](Oc2nc(-c3ccncc3)cc3ccccc23)CN1C(=O)[C@@H](NC(=O)OC(C)(C)C)C(C)(C)C)C(=O)NS(=O)(=O)N(C)C (stereo partly drawn) [Compound 23]	< 150	< 150
